Laboratory results as given in US10716850B2, “Anti-inflammatory factor retentate, method of isolation, and use” (Wellin, Inc., priority 2014, dated 2020).

Tests used:
[1] = system: circulating neutrophils and lymphocytes; assay: effect on circulating leucocytes; format: in vivo, rat; conditions: other anti-inflammatory/immunomodulatory agents
Description: Two experiments were done. In the first, the MAIF preparation was administered intravenously at a dose of 40 mg/rat to one group of 6 animals and a control group was injected with saline. Blood samples were obtained at baseline, 1, 4, and 24 hours after treatment.
A further dose-response study was carried out in which a group of rats were injected intravenously with saline, 5, 10 or 20 mg of the MAIF preparation. Blood from each rat had been taken 7 days previously to provide baseline values and was taken again 4 hours after the injection of MAIF. Included on the graph are the results obtained from the sample taken 4 hours after the administration of 40 mg the MAIF preparation (see FIG. 31).

[2] = system: neutrophil migration into the pleural cavity; assay: pleural neutrophil migration inhibition assay; format: in vivo, rat; conditions: for dose range of activity in the neutrophil assay: compared together with Peak 12
Description: Neutrophil Migration Inhibition Assay. MAIF anti-inflammatory activity was determined in a pleural neutrophil migration inhibition assay. Female, white laboratory rats weighing 120 to 150 g were injected intrapleurally with 1.0 ml of 1% kappa carrageenin in PBS to induce neutrophil migration into the pleural cavity. Immediately, the rats were injected intraperitoneally with 0.5 ml doses of […] samples in PBS. PBS was used as a control. After four hours, the rats were sacrificed, pleural exudates were collected, and the emigrated neutrophils were counted.

[3] = system: carrageenan-induced footpad edema; assay: quantitative rat carrageenan footpad assay with 125I-HSA; format: in vivo; conditions: given 30 minutes prior to carrageenan; aspirin orally 200 mg per kilogram, MAIF intraperitoneally, all dosages
Description: Peak I from the G-10 column, supplied by Stolle Milk Biologics International, was prepared according to the methods described in U.S. Pat. No. 4,956,349. Lactose, obtained from commercial sources, was used as placebo. Aspirin was used as a positive control. Aspirin was dissolved in water and given orally by gastric gavage at the ratio of 200 mg per kilogram, a dose known to be active in the assay. […] The footpad assay was modified by using isotopically labeled human serum albumin (^125I-HSA) that localizes in the carrageenan-induced lesion in direct proportion to the volume of the exudate. By determining the total radioactive count in the footpad and comparing this to the counts in a known volume of plasma from the injected animal, a direct measurement of edema in microliters of plasma equivalents is obtained. ^125I-HSA was injected intravenously at a dose of 1.0 microcurie per rat. Female Dark Agouti rats were used. […]
To conduct the carrageenan footpad assay, 0.1 ml of 2% carrageenan was injected subcutaneously into each hind foot pad of an anesthetized rat. […] Both hind feet were then removed and the levels of radioactivity in each foot and in the 200 μl plasma standard were measured in an automated gamma counter. From these measurements the volume of edema in each foot was calculated and expressed in microliters.

Row | Compound | effect on circulating leucocytes in the rat [1] | dose range of activity in the neutrophil assay [2] | also measured
1 | O=P1(N(CCCl)CCCl)NCCCO1 (stereo not drawn) [cyclophosphamide] | depletes both circulating lymphocytes and neutrophils |  | 
2 | O=C(O)c1cc(=O)[nH]c(=O)[nH]1 [orotic acid] |  |  | inhibitory activity on the migration of rat neutrophils ([2]; in the doses tested): Neither the sialic acid nor the orotic acid exhibited any inhibitory activity
3 | cyclosporin A | causes an increase in the number of circulating neutrophils but lymphocyte numbers are either increased or not affected depending on the dose |  | 
4 | COc1ccc2c(c1)c(CC(=O)O)c(C)n2C(=O)c1ccc(Cl)cc1 [indomethacin] |  | active in the high microgram to milligram range | 
5 | CC(=O)Oc1ccccc1C(=O)O [aspirin] |  | active in the high microgram to milligram range | footpad edema [3]: inhibited
